Results reported in patent publication US4593090A, “Novel nitrosourea compounds, method for preparing same, and pharmaceutical composition containing same” (Gogo Kimura, priority 1981, dated 1986).

Columns and labels:
[1] = test system: Leukemia L1210; test: Activity against Leukemia L1210, intraperitoneal, increase in life span of mice; type: in vivo, female mice (BDF1 family); conditions: for ED (maximum ILS) / ED30: Mus musculus, L1210, ip, ip once a day for 5 successive days; for ED (maximum ILS): daily dosage giving maximum increase of life span, read-out: O.D. (optimum dosage); for ED30: daily dosage increasing average survival days by 30%, read-out: ILS30; for Survivors after 60 days / Max. ILS % / Therapeutic ratio TR: ip; for Survivors after 60 days: 6-membered group; for Max. ILS %: 60-day observation, versus control; for Therapeutic ratio TR: O.D./ILS30
In short: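 Dosing started 24 h after ip implantation of 1×10^5 L1210 cells into groups of 6 female BDF1 mice, by ip or oral route daily for 5 consecutive days. Survival was followed for 60 days; increase in life span was scored against untreated mice, with therapeutic ratio from optimum dose over ILS30 dose.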

[2] = test system: Leukemia L1210; test: Activity against Leukemia L1210, oral, increase in life span of mice; type: in vivo, female mice (BDF1 family); conditions: for ED (maximum ILS) / ED30: Mus musculus, L1210, oral once a day for 5 successive days; for ED (maximum ILS): daily dosage giving maximum increase of life span, read-out: O.D. (optimum dosage); for ED30: daily dosage increasing average survival days by 30%, read-out: ILS30; for Survivors after 60 days / Max. ILS % / Therapeutic ratio TR: oral; for Survivors after 60 days: 6-membered group; for Max. ILS %: 60-day observation, versus control; for Therapeutic ratio TR: O.D./ILS30
Procedure: Tests were conducted in accordance with the method for measuring antitumor activity of National Cancer Center Tokyo (A, Hoshi et al, Farumashia 9 464 (1973)). Test compounds were each intraperitoneally (referred to as ip) or orally (referred to as op) administered once a day for 5 successive days to a 6-membered group of femal mice (BDF1 family, each weighing 20 to 23 g) 24 hours after 1×10^5 cells of Leukemia L1210 have been implantated into the abdominal cavities of the mice, and the effect was evaluated by comparing the survival days of treated groups with those of an untreated group of mice (control group) in 60-day observation. An increase percentage of life span (ILS%) was calculated from said average survival days compared with those of the control group. Further, therapeutic ratio (O.D./ILD30, referred to as T.R.) of each tested compound was calculated from the daily dosage of the compound necessary to increase said average survival days by 30% as compared with the control group (this dosage is referred to as ILS 30) and the daily dosage giving a maximum increase of life span to mice implantated with L1210 cells, namely an optimum dosage (referred to as O.D.). The results of five successive days intraperitoneal administrations of test compounds were shown in Tables I to III, and those of five successive oral administrations in Table IV.

[3] = Acute toxicity (LD50, Behrens-Karber method); type: in vivo, ICR mice; conditions: mouse, in vivo, ip, mortality during 30 days
Procedure: Test compounds, dissolved or suspended in 0.5% aqueous CMC, were each intraperitoneally administered to ICR mice in a dose of 0.1 ml per 10 g body weight. LD50 (mg/kg) value of each test compound was calculated from the mortality of mice during 30 days by the Behrens-Karber method.

| SMILES | ED (maximum ILS) [1] | ED30 [1] | Survivors after 60 days [1] | Max. ILS % [1] | Therapeutic ratio TR [1] | ED (maximum ILS) [2] | ED30 [2] | Survivors after 60 days [2] | Max. ILS % [2] | Therapeutic ratio TR [2] | LD50 at 720 h [3] |
| --- | --- | --- | --- | --- | --- | --- | --- | --- | --- | --- | --- |
| CCOCCO[C@H]1O[C@H](CN(C(=O)N(CCCl)N=O)C(C)C)[C@H](O)[C@H](O)[C@H]1O [Compound 113, 3-isopropyl-3-(2-ethoxyethyl α-D-galactopyranose-6-yl)-1-(2-chloroethyl)-1-nitrosourea] | 150 mg/kg | 2.23 mg/kg | 6/6 | > 700% | 67.3 | 180 mg/kg | 7.32 mg/kg | 6/6 | > 700% | 24.6 | 450 mg/kg |
| CCOCCN(C(=O)N(CCCl)N=O)[C@H]1[C@@H](OCC(C)C)O[C@H](CO)[C@H](O)[C@@H]1O [Compound 123, 3-(2-ethoxyethyl)-3-(isobutyl α-D-galactopyranose-2-yl)-1-(2-chloroethyl)-1-nitrosourea] | 200 mg/kg | 4.98 mg/kg | 3/6 | > 365% | 40.2 | 240 mg/kg | 13.2 mg/kg | 3/6 | > 360% | 18.2 | 730 mg/kg |
| COCC(C)N(C(=O)N(CCCl)N=O)[C@H]1[C@@H](O)[C@@H](CO)O[C@H](OCC(C)C)[C@@H]1O (stereo partly drawn) [Compound 126, 3-(1-methyl-2-methoxyethyl)-3-(isobutyl α-D-galactopyranose-3-yl)-1-(2-chloroethyl)-1-nitrosourea] | 250 mg/kg | 6.22 mg/kg | 3/6 | > 355% | 40.2 | 240 mg/kg | 15.4 mg/kg | 3/6 | > 350% | 15.6 | 785 mg/kg |
| COCC(C)N(C[C@H]1O[C@H](OC2CCCCC2)[C@@H](O)[C@@H](O)[C@H]1O)C(=O)N(CCCl)N=O (stereo partly drawn) [Compound 145, 3-(1-methyl-2-methoxyethyl)-3-(cyclohexyl α-D-talopyranose-6-yl)-1-(2-chloroethyl)-1-nitrosourea] | 170 mg/kg | 2.91 mg/kg | 6/6 | > 700% | 58.4 | 200 mg/kg | 10.9 mg/kg | 4/6 | > 450% | 18.3 | 580 mg/kg |
| COC(C)CN(C(=O)N(CCCl)N=O)[C@H]1CO[C@@H](OCC(C)C)[C@H](O)[C@H]1O (stereo partly drawn) [Compound 153, 3-(2-methoxy-n-propyl)-3-(isobutyl α-L-arabinopyranose-4-yl)-1-(2-chloroethyl)-1-nitrosourea] | 150 mg/kg | 2.57 mg/kg | 5/6 | > 625% | 58.4 | 180 mg/kg | 10.8 mg/kg | 4/6 | > 425% | 16.7 | 480 mg/kg |
| O=NN(CCCl)C(=O)N(CC1CCCO1)[C@H]1[C@H](OC2CCCCC2)OC[C@H](O)[C@@H]1O (stereo partly drawn) [Compound 156, 3-tetrahydrofurfuryl-3-(cyclohexyl α-L-arabinopyranose-2-yl)-1-(2-chloroethyl)-1-nitrosourea] | 150 mg/kg | 2.45 mg/kg | 6/6 | > 700% | 61.2 | 180 mg/kg | 9.78 mg/kg | 4/6 | > 460% | 18.4 | 480 mg/kg |
| COC(C)CN(C(=O)N(CCCl)N=O)[C@@H]1[C@@H](OCC(C)C)OC[C@@H](O)[C@H]1O (stereo partly drawn) [Compound 159, 3-(2-methoxy-n-propyl)-3-(isobutyl α-D-arabinopyranose-2-yl)-1-(2-chloroethyl)-1-nitrosourea] | 160 mg/kg | 2.61 mg/kg | 6/6 | > 700% | 61.3 | 180 mg/kg | 10.9 mg/kg | 5/6 | > 625% | 16.5 | 520 mg/kg |
| CC(C)CN(C[C@H]1O[C@@H](OC2CCCCC2)[C@@H](O)[C@@H]1O)C(=O)N(CCCl)N=O [Compound 161, 3-isobutyl-3-(cyclohexyl β-D-arabinofuranose-5-yl)-1-(2-chloroethyl)-1-nitrosourea] | 150 mg/kg | 3.18 mg/kg | 4/6 | > 440% | 47.2 | 180 mg/kg | 12.7 mg/kg | 3/6 | > 350% | 14.2 | 460 mg/kg |
| COCCCO[C@@H]1O[C@H](CN(CC(C)C)C(=O)N(CCCl)N=O)[C@@H](O)[C@H]1O [Compound 167, 3-isobutyl-3-(3-methoxy-n-propyl β-D-ribofuranose-5-yl)-1-(2-chloroethyl)-1-nitrosourea] | 160 mg/kg | 3.17 mg/kg | 4/6 | > 430% | 50.5 | 180 mg/kg | 12 mg/kg | 4/6 | > 450% | 15.0 | 510 mg/kg |
| CC(C)CN(C[C@@H]1O[C@@H](OC2CCCCC2)[C@H](O)[C@@H]1O)C(=O)N(CCCl)N=O [Compound 171, 3-isobutyl-3-(cyclohexyl α-L-lyxofuranose-5-yl)-1-(2-chloroethyl)-1-nitrosourea] | 150 mg/kg | 3.3 mg/kg | 4/6 | > 440% | 45.5 | 190 mg/kg | 11.7 mg/kg | 4/6 | > 450% | 16.2 | 450 mg/kg |
| COCCCO[C@H]1O[C@H](CN(C(=O)N(CCCl)N=O)C2CCCCC2)[C@@H](O)[C@H](O)[C@H]1O [Compound 174, 3-cyclohexyl-3-(3-methoxy-n-propyl α-D-glucopyranose-6-yl)-1-(2-chloroethyl)-1-nitrosourea] | 180 mg/kg | 2.78 mg/kg | 6/6 | > 700% | 64.8 | 230 mg/kg | 9.66 mg/kg | 5/6 | > 620% | 23.8 | 610 mg/kg |
